Source: US5369125A, “Cholesterol-lowering agents” (Merck & Co., Inc., priority 1993, dated 1994)
Values after ≈ are worked out from the molar mass of the structure shown.

Tests used:
Ras farnesylation = conditions: Hancock et al., Casey et al., Schafer et al.; cited from earlier work
[1] = system: Cryptococcus neoformans MY1051; test: Minimum fungicidal concentration, Cryptococcus neoformans; type: cell-based; conditions: 35° C.
Experimental: (§1) The compounds are particularly active towards filamentous fungi and yeasts including Candida albicans and Cryptococcus neoformans. The sensitivity of filamentous fungi and yeast was determined using inhibitor dilution assays in microtiter format. The compounds were dissolved in 10% DMSO at 256 μg/mL and serially diluted in (DIFCO) Yeast Nitrogen Base supplemented with 1% glucose (YNBD) by two-fold dilutions yielding final drug concentrations ranging from 128-0.06 μg/mL. The wells were filled with 150 μL of inoculated media. Exponential phase Candida and Cryptococcus cells were diluted in YNBD such that the inoculum was 1.5-7.5×10^3 cells/mL. Aspergillus spores were harvested from a well-sporulated Sabouraud Dextrose Agar (SDA) slant in 0.01% Tween 80 and diluted into media to give an inoculum of 1×10^3 spores/mL. The microtiter dishes were incubated at 35° C. for 24 to 48 hours. […] After recording the MIC of yeasts, plates were shaken on a (SARSTEDT) TPM2 shaker to resuspend the cells and a MIC-2000 inoculator (DYNATECH) was used to transfer a 1.5 μL sample from each well in the microplate to a spot in a single-well tray containing SDA. Inoculated trays were incubated at 35° C. and results were recorded at 24 h or 48 h (for Cryptococcus). The minimum fungicidal concentration (MFC) was defined as the lowest concentration of drug showing no growth or less than 4 colonies per spot. […]

[2] = system: Aspergillus fumigatus MF4839; test: Broth dilution antifungal assay (MIC), Aspergillus fumigatus; type: cell-based; conditions: 24 to 48 hours at 29° C., read-out: Minimum Inhibitory Concentration (MIC)
Experimental: as §1

[3] = molecular target: T1, Farnesyl-protein transferase (Ftase) from bovine brain (Bos taurus, UniProt P29702+P49355); test: Farnesyl-transferase assay (inhibition of Ras farnesylation in vitro); type: biochemical; conditions: Ras-CVLS 3.5 μM, 0.25 μM [3H]FPP, partially purified bovine brain enzyme
T1 construct: Farnesyl-protein transferase (Ftase) from bovine brain was chromatographed on DEAE--Sephacel; from tissue; host or cells: bovine brain, partially purified by chromatography
Experimental: FARNESYL-TRANSFERASE ASSAY
Farnesyl-protein transferase (Ftase) from bovine brain was chromatographed on DEAE--Sephacel (Pharmacia, 0-0.8M NaCl gradient elution), N-octyl agarose (Sigma, 0-0.6M NaCl gradient elution), and a MONO Q HPLC column (Pharmacia, 0-0.3M NaCl gradient). Ras-CVLS at 3.5 μM, 0.25 μM [^3 H]FPP, and the indicated compounds were incubated with this partially purified enzyme preparation. The Ftase data is a measurement of the ability of the test compound to inhibit Ras farnesylation in vitro.

Candida albicans MY1055 = test: Minimum fungicidal concentration, Candida albicans; type: cell-based; conditions: 35° C.
Experimental: as §1

Squalene Synthase = molecular target: T2, Squalene Synthase (Rattus norvegicus, UniProt Q02769); test: Squalene synthase assay (standard in vitro protocol, rat liver microsomes, [4-14C]farnesyl pyrophosphate); type: biochemical; conditions: 30° C., 20 minutes
T2 construct: The livers from these rats were homogenized in 5 volumes (mL/g) of ice cold 50 mM HEPES; from tissue; host or cells: liver microsomes of male Charles River CD rats fed 0.1% lovastatin
T2 sequence (Q02769 1-416): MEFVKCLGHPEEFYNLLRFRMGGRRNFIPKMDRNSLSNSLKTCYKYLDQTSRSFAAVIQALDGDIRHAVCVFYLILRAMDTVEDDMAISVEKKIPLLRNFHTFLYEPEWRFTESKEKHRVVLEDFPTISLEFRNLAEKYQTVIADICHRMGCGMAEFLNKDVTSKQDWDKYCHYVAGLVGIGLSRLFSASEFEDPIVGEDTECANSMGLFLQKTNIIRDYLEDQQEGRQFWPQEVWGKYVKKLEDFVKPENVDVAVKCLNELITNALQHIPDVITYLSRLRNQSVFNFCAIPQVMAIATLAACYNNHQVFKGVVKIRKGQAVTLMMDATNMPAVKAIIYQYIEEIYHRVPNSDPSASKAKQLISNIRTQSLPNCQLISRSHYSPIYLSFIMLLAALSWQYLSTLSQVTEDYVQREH
Experimental: The intrinsic squalene synthase inhibitory activity of representative compounds of this invention was measured by the standard in vitro protocol described below:
Preparation of Rat Liver Microsomes
Male, CHARLES RIVER CD® rats (120 to 150 g) were fed a diet containing 0.1% lovastatin for 4 days. The livers from these rats were homogenized in 5 volumes (mL/g) of ice cold 50 mM HEPES (4-(2-hydroxyethyl)-1-piperazine-ethanesulfonic acid), 5 mM EDTA(ethylenediaminetetraacetic acid) pH 7.5 with a Potter-Elvehjem type tissue grinder. The homogenate was centrifuged twice at 20,000× g for 15 min. at 4° C., discarding the pellet each time. The supernatant was then centrifuged at 100,000× g for 1 hr at 4° C. The resulting microsomal pellet was resuspended in a volume of the above homogenizing buffer equal to one-fifth the volume of the original homogenate. This microsomal preparation has a protein concentration of about 7 mg/mL. The microsomal suspensions were stored in aliquots at -70° C. Squalene synthase activity in these aliquots is stable for a least several months.
Partial Purification of Prenyl Transferase
Prenyl transferase was purified to use in the enzymatic synthesis of radiolabelled farnesyl pyrophosphate. […]

Row | Compound | Inhibition of Ras farnesylation in vivo (Ras farnesylation) | MFC [1] | MIC [2] | IC50 [3] | MFC (Candida albicans MY1055) | IC50 (Squalene Synthase)
1 | CC[C@H](C)C(=O)O[C@H]1CCC=C2C=C[C@H](C)[C@H](CC[C@@H]3C[C@@H](O)CC(=O)O3)[C@H]21 [compactin] | Inhibition of Ras farnesylation in vivo has been demonstrated | – | – | – | – | –
2 | C=C(CC[C@]12O[C@H](C)[C@@](O)(C(=O)O)[C@](C(=O)O)(O1)[C@H](OC(=O)/C=C/[C@@H](C)C[C@@H](C)CC)[C@H]2O)[C@@H](OC(C)=O)[C@H](C)Cc1ccccc1 [Compound 128, IIA-3-methyl] | – | 0.5 µg/mL (≈ 0.757 µM) | 16 µg/mL (≈ 24.2 µM) | 3.3 µM | 128 µg/mL (≈ 194 µM) | 0.0035 µM
3 | CC[C@H](C)C(=O)O[C@H]1C[C@@H](C)C=C2C=C[C@H](C)[C@H](CC[C@@H]3C[C@@H](O)CC(=O)O3)[C@H]21 [lovastatin] | Inhibition of Ras farnesylation in vivo has been demonstrated | – | – | – | – | –
